Data as given in patent US9885044B2, “Polynucleotides and methods for inhibiting cancer cells” (Chang Gung Memorial Hospital, Linkou, priority 2015, dated 2018).

Experiments:
Puf-A protein = experiment: Effect of resveratrol on Puf-A protein expression (Western blot); assay type: cell-based; settings: 25 and 50 uM
Protocol: (§1) FIG. 9A is an assembly of Western blot images illustrating 25 and 50 uM of resveratrol reduced the expression of Puf-a in A549 lung cancer cells, HCT116 colon cancer cells, MB231 breast cancer cells and T98 glioblatoma cells. FIG. 9B is an assembly of graphs illustrating 25 and 50 uM of resveratrol was effective in reducing the proliferation of A549 lung cancer cells, HCT116 colon cancer cells, MB231 breast cancer cells and T98 glioblatoma cells.
(§2) An in vitro evaluation of the effect of Resveratrol on the expression level of Puf-a protein and cell proliferation in various cancer cells was examined. The following cancer cells were treated with 0, 25 or 50 uM of Resveratrol (commercially available from Sigma, USA): A549 lung cancer cells (p53 proficient), HCT116 colon cancer cells (p53 proficient), MB231 breast cancer cells (p53 deficient) and T98 glioblatoma cells (p53 deficient). The expression of Puf-A protein in these cancer cells was analyzed by western blot and the cell proliferation was measured with a cell proliferation assay performed with xCELLigenece RTCA system (ACEA Biosciences Inc, USA). FIG. 9A is an assembly of Western blot images illustrating 25 and 50 uM of resveratrol reduced the expression of Puf-A in A549 lung cancer cells, HCT116 colon cancer cells, MB231 breast cancer cells and T98 glioblatoma cells. FIG. 9B is an assembly of graphs illustrating 25 and 50 uM of resveratrol reduced the proliferation of A549 lung cancer cells, HCT116 colon cancer cells, MB231 breast cancer cells and T98 glioblatoma cells compare to the control group (no resveratrol).

A549 lung cancer cells = experiment: Cell proliferation assay, xCELLigenece RTCA system, A549; assay type: cell-based; settings: 25 and 50 uM
Protocol: as §1
as §2, with “FIG. 9B is an assembly of graphs illustrating 25 and 50 uM of resveratrol reduced the proliferation of A549 lung cancer cells, HCT116 colon cancer cells, MB231 breast cancer cells and T98 glioblatoma cells compare to the control group (no resveratrol).” left out

[1] = tested on: HCT116 colon cancer cells; experiment: Cell proliferation assay, xCELLigenece RTCA system, HCT116; assay type: cell-based; settings: 25 and 50 uM
Protocol: as §1
as §2, with “FIG. 9B is an assembly of graphs illustrating 25 and 50 uM of resveratrol reduced the proliferation of A549 lung cancer cells, HCT116 colon cancer cells, MB231 breast cancer cells and T98 glioblatoma cells compare to the control group (no resveratrol).” left out

[2] = tested on: MB231 breast cancer cells; experiment: Cell proliferation assay, xCELLigenece RTCA system, MB231; assay type: cell-based; settings: 25 and 50 uM
Protocol: as §1
as §2, with “FIG. 9B is an assembly of graphs illustrating 25 and 50 uM of resveratrol reduced the proliferation of A549 lung cancer cells, HCT116 colon cancer cells, MB231 breast cancer cells and T98 glioblatoma cells compare to the control group (no resveratrol).” left out

T98 glioblatoma cells = experiment: Cell proliferation assay, xCELLigenece RTCA system, T98; assay type: cell-based; settings: 25 and 50 uM
Protocol: as §1
as §2, with “FIG. 9B is an assembly of graphs illustrating 25 and 50 uM of resveratrol reduced the proliferation of A549 lung cancer cells, HCT116 colon cancer cells, MB231 breast cancer cells and T98 glioblatoma cells compare to the control group (no resveratrol).” left out

Puf-A RNA = experiment: Puf-A knockdown by shRNA lentivirus vectors, RT-PCR and Q-PCR; assay type: cell-based, human
Protocol: FIG. 6A show the nucleotide sequence of human Puf-A gene (SEQ ID NO:1). […] FIG. 6C and FIG. 6D illustrate the Puf-A knockdown efficiency of control shRNA, shPuf-A-1 and shPuf-A-2 in colorectal cancer cells (HCT116) and lung cancer cells (H1299), determined by RT-PCR and Q-PCR analyses.
The effect of the shRNAs constructs in FIG. 6B on Puf-A expression was evaluated using p53-proficient (p53^+/+ HCT116) and p53-deficient (p53^−/− HCT116 and p53^−/− H1299). The cells were transduced with control shRNA, shPuf-A-1 and shPuf-A-2 lentivirus vectors and Puf-A expression was determined by […] and Q-PCR. […] The knockdown efficiencies of shPuf-A-1 and shPuf-A-2 on Puf-A expression were approximately 90% and 75%, respectively, compare to the control shRNA (FIG. 6D).

Puf-A proteins = experiment: Puf-A protein expression after shPuf-A transduction of cancer cell lines (Western blot); assay type: cell-based; settings: A549, H460, H1299, CL1-5, HCT116, MB231, U87, LN229, T98 cells
Description: (§3) FIG. 7A is an assembly of images showing the effect of control shRNA, shPuf-A-1 and Puf-A-2 on Puf-A expression and cleaved form of PARP1, by transducing control shRNA, shPuf-A-1 and Puf-A-2 into the following p53-deficient and p53-proficient cell lines: A549, H460, U87, HCT116, H1299, CL1-5, MB231, LN229 and T98. FIG. 7B is a series of flow cytometry (FACS) images, illustrating the cell-cycle of Puf-A depleted (shPuf-A transduced) p53 proficient (p53 wild type) and p53 deficient (p53 defective) cancer cell lines. FIG. 7C is a series of Western blot images showing the effect shPuf-A-1 transduction on the expression of Puf-A, LC3 (marker for autophagosome), LAMP2 (marker for lysosome) and p62 (an autophagy substrate) in p53^+/+HCT116, p53^−/−HCT116, and p53^−/−H1299 cancer cell lines. FIG. 7D is a Western Blot image illustrating the effect of suppressing p53 and Puf-A in p53-proficient cells (H460). FIG. 7E is a series of immunofluorescence images illustrating the effect of silencing Puf-A, by shPuf-A-1 transduction, on LC3 (green), Lamp1 (red) and DAPI (blue) expression in p53 proficient (p53^+/+) HCT116, P53 deficient (p53^−/−) HCT116 and H1299 cancer cells. […]
The biological function of Puf-A on cancer cells was assessed, using lung cancer cells (A549, H460, H1299 and CL1-5); colorectal cancer cells (HCT116); breast cancer cells (MB231) and glioblastoma cells (U87, LN229 and T98).

LC3-II, LAMP2, p62 = experiment: Autophagy markers after shPuf-A transduction (Western blot); assay type: cell-based; settings: p53-proficient cells (p53+/+ HCT116)
Description: as §3, with “cells. FIG. 7F is a series of graphs illustrating reduced proliferation rate of p53^−/− HCT116 and H1299 cells after shPuf-A-1 and shPuf-A-2 transduction compared to control shRNA transduction.” for “cells.”

LC3-II, LAMP1 = experiment: Immunofluorescence staining of LC3-II and LAMP1 after shPuf-A-1 transduction; assay type: cell-based
Description: (§4) FIG. 7A is an assembly of images showing the effect of control shRNA, shPuf-A-1 and Puf-A-2 on Puf-A expression and cleaved form of PARP1, by transducing control shRNA, shPuf-A-1 and Puf-A-2 into the following p53-deficient and p53-proficient cell lines: A549, H460, U87, HCT116, H1299, CL1-5, MB231, LN229 and T98. FIG. 7B is a series of flow cytometry (FACS) images, illustrating the cell-cycle of Puf-A depleted (shPuf-A transduced) p53 proficient (p53 wild type) and p53 deficient (p53 defective) cancer cell lines. FIG. 7C is a series of Western blot images showing the effect shPuf-A-1 transduction on the expression of Puf-A, LC3 (marker for autophagosome), LAMP2 (marker for lysosome) and p62 (an autophagy substrate) in p53^+/+HCT116, p53^−/−HCT116, and p53^−/−H1299 cancer cell lines. FIG. 7D is a Western Blot image illustrating the effect of suppressing p53 and Puf-A in p53-proficient cells (H460). FIG. 7E is a series of immunofluorescence images illustrating the effect of silencing Puf-A, by shPuf-A-1 transduction, on LC3 (green), Lamp1 (red) and DAPI (blue) expression in p53 proficient (p53^+/+) HCT116, P53 deficient (p53^−/−) HCT116 and H1299 cancer cells. FIG. 7F is a series of graphs illustrating reduced proliferation rate of p53^−/− HCT116 and H1299 cells after shPuf-A-1 and shPuf-A-2 transduction compared to control shRNA transduction.

[3] = tested on: p53-deficient and P53-proficient cancer cells; experiment: Proliferation rate of cancer cells after shPuf-A transduction; assay type: cell-based; settings: p53-deficient and P53-proficient cancer cells (FIG. 7F)
Description: as §4, with “transduction. […]” for “transduction.”

p53 and p21 = p53 and p21 protein/RNA expression in p53 proficient cancer cells after Puf-A suppression; assay type: cell-based; settings: A549, H460 or HCT116 p53 proficient cells
Description: FIG. 8A is a series of Western blot, RT-PCR and Q-PCR images, illustrating shPuf-A1 and shPuf-A2 transduction increases the expression of p53 and p21 and reduces transcripts of PUF-A in the following p53-proficient (p53^+/+) cancer cell lines: A549, H460, and HCT116. FIG. 8B is a series of immunostaining images illustrating the expression of p53 (red) and DAPI (blue, internal control) in p53-proficient (p53^+/+) cancer cell lines A549, H460 and HCT116 cells and P53 deficient (p53^−/−) HCT116 cancer cells after control shRNA and shPuf-A-1 transduction. FIG. 8C is a series of bar graphs illustrating the FACS analyzed cell-cycles of Puf-A depleted cancer cells, A549, H460 and HCT116, with different p53 genotypes.
The effect of Puf-A suppression on the expression level of p53 and p21 protein/RNA in p53 proficient cancer cells was examined, by infecting A549, H460 or HCT116 cancer cells with shPuf-A-1, shPuf-A-2 or control shRNA viral vectors. […] Cell-cycle progression of the same cancer cell lines was analyzed by FACS.

| Molecule | expression of Puf-A (Puf-A protein; A549 lung cancer cells (p53 proficient)) | expression of Puf-A (Puf-A protein; HCT116 colon cancer cells (p53 proficient)) | expression of Puf-A (Puf-A protein; MB231 breast cancer cells (p53 deficient)) | expression of Puf-A (Puf-A protein; T98 glioblatoma cells (p53 deficient)) | proliferation compared to control group (no resveratrol) (A549 lung cancer cells) | proliferation compared to control group (no resveratrol) [1] | proliferation compared to control group (no resveratrol) [2] | proliferation compared to control group (no resveratrol) (T98 glioblatoma cells) | knockdown efficiency on Puf-A expression compared to control shRNA (Puf-A RNA; HCT116 and H1299 cells, Q-PCR (FIG. 6D)) | expression level of Puf-A RNA compared to control shRNA (Puf-A RNA; p53-proficient (p53+/+ HCT116) and p53-deficient (p53−/− HCT116, p53−/− H1299) cells, GAPDH internal control) | expression level of Puf-A proteins compared to control shRNA (Puf-A proteins) | level of LC3-II expression (LC3-II, LAMP2, p62) | expression and co-localization of LC3-II and LAMP1 (LC3-II, LAMP1; p53-deficient cancer cells) | LAMP1 around the nuclei (LC3-II, LAMP1; p53-proficient cancer cells) | proliferation rate compared to control shRNA virus [3] | expression level of p21 protein or RNA compared to control shRNA (p53 and p21) | expression level of p53 protein or RNA compared to control shRNA (p53 and p21) |
| --- | --- | --- | --- | --- | --- | --- | --- | --- | --- | --- | --- | --- | --- | --- | --- | --- | --- |
| Oc1ccc(C=Cc2cc(O)cc(O)c2)cc1 [resveratrol] | reduced | reduced | reduced | reduced | reduced | reduced | reduced | reduced |  |  |  |  |  |  |  |  |  |
| shPuf-A-1: novel short hairpin RNA targeting Puf-A, encoded by SEQ ID NO:2, delivered by lentivirus vector (DNA CCGGGCCTAGCATAGTAAATGACAACTCGAGTTGTCATTTACTATGCTAGGCTTTTTTG) |  |  |  |  |  |  |  |  | approximately 90% | significantly reduced | significantly reduced | slight increase | increase expression and co-localization | slight increase | reduced | significantly increased | significantly increased |
